Laboratory results published in patent US11992552B2, “Geometric configurations for gastric residence systems” (Lyndra Therapeutics, Inc., priority 2015, dated 2024).

How the values were obtained:
[1] = Shear-lap joint adhesion test (ASTM D3163) of enteric materials; assay type: physicochemical; settings: plasticizer with Eudragit L100-55 (70%/30% enteric material/plasticizer), acetone as solvent, PCL sheets
Description: The influence of solvent (acetone, isopropyl alcohol, and ethyl acetate) and plasticizer (Eudragit NM, Plastoid B, Triethyl Citrate, and Triacetin) on the adhesion force of enteric materials were quantified using ASTM D3163, a standardized shear-lap joint mechanical test. The top figure A illustrates a side view of the experimental setup. Two 2-mm thick PCL (Mn 55 k) polymer sheets are adhered to an enteric material, Eudragit L100-55 (methyl methacrylate) combined with a plasticizer (in a 70%/30% enteric material/plasticizer ratio), using a solvent and pressure. The polymer sheets are then loaded into a tensile testing machine and pulled apart. The force/stress that causes the linker-polymer bond to break is recorded.

[2] = Behaviour over seven days in simulated gastric fluid; assay type: physicochemical

SMILES: CC(=O)OCC(COC(C)=O)OC(C)=O [Triacetin]
- adhesion force [1]: greatest adhesion force
- release of plasticizer from a polymer formulation [2]: releases from a polymer formulation in a time-dependent manner over seven days
